According to US7618958B2, “Stereospecific anxiolytic and anticonvulsant agents with reduced muscle-relaxant, sedative-hypnotic and ataxic effects” (WISYS Technology Foundation, Inc., priority 2004, dated 2009):

Key:
Male Sprague-Dawley rats [1] = experiment: Open-field locomotor activity in rats; conditions: ratio of lowest effective anxiolytic dose (situational anxiety) and lowest effective dose producing side effects in locomotor activity, PO
Description: Open-Field Locomotor Activity in Rats
Male Sprague-Dawley rats, weighing 250-290 grams at the beginning of the experiment were purchased from Charles River Laboratories (Wilmington, Mass.). The animals were housed in groups of four in a colony room maintained at constant temperature (21±2° C.) and humidity (50±10%). The room was illuminated 12 hours per day (lights on at 0600 h). The rats had ad libitum access to food and water. The testing apparatus consisted of Plexiglas chambers (42×42×30 cm) equipped with Digiscan activity monitors (Omnitech Electronics, Columbus, Ohio) that detect interruptions of 16 photobeams spaced 2.5 cm apart and 2.5 cm above the floor. Horizontal activity was monitored for 60 minutes.
(§1) Drug Administration: All drugs were administered PO 20-60 minutes before behavioral testing.
(§2) Data Analysis: Results were expressed as the mean±1 SEM. All data were subjected to analysis of variance (ANOVA) followed by individual mean comparisons using Fisher's Least Significant Difference Test (Kirk, 1968) where appropriate. The significance level was set at p<0.05.
Rats were placed in an open field and the total distance covered by the rat was measured. The test duration was 60 minutes. Compounds producing sedative effects decrease the distance covered.

Male Sprague-Dawley rats [2] = experiment: Rotorod performance in rats; conditions: ratio of lowest effective anxiolytic dose (situational anxiety) and lowest effective dose producing side effects in rotorod, PO
Description: Rotorod Performance in Rats
Male Sprague-Dawley rats, weighing 180-200 grams at the beginning of the experiment were purchased from Charles River Laboratories (Wilmington, Mass.). The animals were housed in groups of four in a colony room maintained at constant temperature (21±2° C.) and humidity (50±10%). The room was illuminated 12 hours per day (lights on at 0600 h). The rats had ad libitum access to food and water. The degree of muscle coordination or balance (i.e., ataxia) was determined using a standard accelerating rotorod treadmill (Ugo Basile, Comerio-Varese, Italy or Columbus Instruments, Columbus, Ohio) that was 6 cm in diameter, 24 cm above the base, and run from an initial speed of 2 rpm to a maximum speed of 20 rpm. The time each animal remained on the rotating rod was automatically recorded, up to a maximum of 5 minutes.
as §1, §2
The time on the rod for each rat was recorded. Compounds producing ataxia (motor incoordination) decrease the time spent on the rod compared with vehicle-treated animals.

Male CF1 mice = experiment: Protection from pentylenetetrazole-induced seizures; type: in vivo, mouse; conditions: PO 60 min before pentylenetetrazole 125 mg/kg s.c.
Description: Protection from Pentylenetetrazole-Induced Seizures
Male CF1 mice weighing 20-22 g at the time of the experiment were purchased from Charles River Laboratories (Wilmington, Mass.). Pentylenetetrazole (Sigma Chemical Co.) was administered at 125 mg/kg s.c. The number of animals surviving was recorded at 30 minutes and 60 minutes after administration of pentylenetetrazole.
Drug Administration: All drugs were administered PO 60 minutes before administration of pentyenetetrazole.
Data Analysis: The data are presented as the percent of animals protected from death. The data were analyzed by Chi Square statistics. The significance level was set at p<0.05.
Mice treated with certain compounds of the present invention were subjected to pentylenetetrazole (PTZ) at 125 mg/kg to induce seizures. The percent of animals protected from death within one hour of PTZ was measured.

Male Sprague-Dawley rats [3] = experiment: Discriminative stimulus effects of chlordiazepoxide in rats (drug discrimination); conditions: ratio of lowest effective anxiolytic dose (situational anxiety) and lowest effective dose producing chlordiazepoxide-like effects in drug discrimination
male Wistar rats = experiment: Elevated plus-maze in rats; type: in vivo, rat; conditions: rats, mean, N 6; for Open Entries: SOLVENT mean 2.57; for Closed Entries: SOLVENT mean 7.14; for Total Distance Travelled (m): SOLVENT mean 9.30; for Total Entries: SOLVENT mean 9.71; for % Open Time: SOLVENT mean 20.43; for % Open Entries: SOLVENT mean 25.57; for Time in open arms: SOLVENT mean 50.29; for Time in closed arms: SOLVENT mean 196.29
Description: Except where noted, the methods used were those of Miroslav M., et al., (2004) Pharmacology, Biochemistry and Behavior 79: 279-290. Experiments were carried out on male Wistar rats (Military Farm, Belgrade, Serbia and Montenegro), weighing 200-240 g. All procedures in the study conformed to EEC Directive 86/609 and were approved by the Ethical Committee on Animal Experimentation of the Medical Faculty in Belgrade. The rats were housed in transparent plastic cages, six animals per cage, and had free access to pelleted food and tap water before and after drug administration. The temperature of the animal room was 22±1° C., the relative humidity 40-70%, the illumination 120 1× and the 12/12-h light/dark period (light on at 06:00 h). All handling and testing took place during the light portion of the cycle. Throughout the study the animals were used only once.
Midazolam and flumazenil were generously donated from F. Hoffman-La Roche (Basel, Switzerland). Zolpidem was purchased from Toronto Research Chemicals (North York, Canada) and DMCM from Research Biochemicals (Natick, Mass., USA). All drugs were dissolved/suspended with the aid of sonication in a solvent containing 85% distilled water, 14% propylene glycol and 1% Tween 80™, and were administered intraperitoneally, in a volume of 1 ml/kg, 20 min before testing. Doses are expressed as the base forms of the drugs. In the cases of combined treatment, agonists were administered at separate sites, immediately after the antagonist. Each animal received a total volume of 2 ml/kg of compounds tested or appropriate vehicles, at two different injection sites.
The test apparatus was constructed of sheet metal, with a black rubber floor. It consisted of a maze elevated to a height of 50 cm with two open (50×10 cm) and two enclosed arms (50×10×40 cm), connected by junction area (central platform) measured 10×10 cm. Although the floor was rubberized, a ledge of sheet metal (0.3 cm high) surrounding the open arms was added, to avoid rats falling off. The illumination in the experimental room consisted of one red neon tube fixed on the ceiling, giving light intensity of 10 1× on the surface of the arms. The experiments were carried out during the diurnal phase (between 08:00 and 12:00 h). At the beginning of the experiment, rats were placed in the centre of the maze, facing one of the enclosed arms and observed for 5 min. The observer sat in the same room 1 m from the maze. After each trial, the maze was cleaned with dry and wet towels. Throughout the study, the number of rats per treatment group was 8-14. Each experiment was run over 4 consecutive days, with three control rats per day; as there was no difference in plus-maze activity among control subgroups, they were pooled in a single control group (n=12).
All numerical data presented in the figures were given as the mean±S.E.M. Each dose-response curve (agonist or antagonist alone or agonist+antagonist) was assessed by a one-way ANOVA. If the ANOVA was significant, each treatment condition was compared with the appropriate solvent control by a Dunnett's test (a=0.05). In case of significant effect in the number of enclosed arm entries, an analysis of covariance (ANCOVA) was performed in the anxiety-related parameters using the number of enclosed arm entries as covariate. Interactions between the agonists and antagonists were analyzed separately with a two-way ANOVA [factors: agonist dose versus cotreatment (an antagonist or saline)]; pairwise comparisons for the assessment of the antagonist influence on the agonist effects were conducted by Tukey's test, one of the methods recommended even in the absence of an overall significant F-test (Wilcox R R. New designs in analysis of variance. Annu Rev Psychol 1987; 38: 29-60). Statistical analyses were performed with commercial statistical software for PC, Stat for Windows R. 5.0.

[4] = DZP 1.25 mg/kg ip, t test p ≦ 0.05

CCOC(=O)c1ncn2c1CN=C(c1ccccc1)c1cc(Cl)ccc1-2
melting point: 174 to 175 °C

CNC1=Nc2ccc(Br)cc2C(c2ccccc2)=NC1
melting point: 234 to 235 °C

CNC1=Nc2ccc(C#C[Si](C)(C)C)cc2C(c2ccccc2)=NC1
melting point: 210 to 211 °C

CN1C(=O)CN=C(c2ccccn2)c2cc(C#C[Si](C)(C)C)ccc21
melting point: 194 to 195 °C

C#Cc1ccc2c(c1)C(c1ccccn1)=NCC(=O)N2C
melting point: 190 to 191 °C

CCOC(=O)c1ncn2c1CN=C(c1ccccn1)c1cc(C#C[Si](C)(C)C)ccc1-2
melting point: 205 to 206 °C

CCOC(=O)c1ncn2c1CN=C(c1cccs1)c1cc(C#C[Si](C)(C)C)ccc1-2
melting point: 124 to 127 °C

CCOC(=O)c1ncn2c1C(C)N=C(c1ccccc1)c1cc(Br)ccc1-2 (stereo not shown)
melting point: 164 to 165 °C

CCOC(=O)c1ncn2c1C(C)N=C(c1ccccc1)c1cc(C#C[Si](C)(C)C)ccc1-2 (stereo not shown)
melting point: 160 to 162 °C

CCOC(=O)c1ncn2c1C(C)N=C(c1ccccc1F)c1cc(C#C[Si](C)(C)C)ccc1-2 (stereo not shown)
melting point: 186 to 187 °C

CCOC(=O)c1ncn2c1C(C)N=C(c1ccccn1)c1cc(C#C[Si](C)(C)C)ccc1-2 (stereo not shown)
melting point: 197 to 198 °C

CC(C)(C)OC(=O)c1ncn2c1CN=C(c1ccccc1)c1cc(Br)ccc1-2
melting point: 222 to 223 °C

Cc1nnc2n1-c1ccc(C#CC(C)(C)C)cc1C(c1ccccc1Cl)=NC2
melting point: > 268 °C (dec.)

Cc1nnc2n1-c1ccc(C#CC(C)(C)C)cc1C(c1ccccc1)=NC2
melting point: 184 to 186 °C

O=C(OCC(F)(F)F)c1ncn2c1CN=C(c1ccccc1)c1cc(Br)ccc1-2
melting point: 202 to 204 °C

O=C(OCC(Cl)(Cl)Cl)c1ncn2c1CN=C(c1ccccc1)c1cc(Br)ccc1-2
melting point: 113 to 116 °C

C[Si](C)(C)C#Cc1ccc2c(c1)C(c1ccccc1)=NCc1c(C(=O)OCC(F)(F)F)ncn1-2
melting point: 107 to 110 °C

CCOC(=O)c1ncn2c1CN=C(c1ccccc1)c1cc(Br)ccc1-2 [DM-i-070, Ethyl 8-bromo-6-phenyl-4H-benzo[f]imidazo[1,5-a][1,4]diazepine-3-carboxylate]
Antianxiety/sedation (Male Sprague-Dawley rats [1]): >100 | Antianxiety/ataxia (Male Sprague-Dawley rats [2]): >100 | PTZ Seizures, effective dose (Male CF1 mice): <100 mg/kg | Antianxiety/abuse liability (Male Sprague-Dawley rats [3]): 10

CN1C(=O)CN=C(c2ccccc2)c2cc(Cl)ccc21 [Diazepam, reference compound]
PTZ Seizures, effective dose (Male CF1 mice): <10 mg/kg | Open Entries (male Wistar rats; [4]): 4.83 | Closed Entries (male Wistar rats; DZP 1.25 mg/kg ip, t test p = 0.292): 5.50 | Total Distance Travelled (m) (male Wistar rats; DZP 1.25 mg/kg ip, t test p = 0.670): 8.59 m | Total Entries (male Wistar rats; DZP 1.25 mg/kg ip, t test p = 0.745): 10.33 | % Open Time (male Wistar rats; [4]): 46.33% | % Open Entries (male Wistar rats; [4]): 47.00% | Time in open arms (male Wistar rats; DZP 1.25 mg/kg ip, t test p = 0.052): 104.17 | Time in closed arms (male Wistar rats; DZP 1.25 mg/kg ip, t test p = 0.064): 129.50 | Antianxiety/abuse liability (Male Sprague-Dawley rats [3]): 5

C#Cc1ccc2c(c1)C(c1ccccc1F)=NC(C)c1c(C(=O)OCC)ncn1-2 (stereo not shown) [SH-053-2′F-S—CH3, 8-Ethynyl-6-(2-fluorophenyl)-4-methyl-4H-2,5,10b-triaza-benzo[e]azulene-3-carboxylic acid ethyl ester]
Open Entries (male Wistar rats; SH-053-2′F-S—CH3 10 mg/kg ip, t test p = 0.503): 3.33 | Closed Entries (male Wistar rats; SH-053-2′F-S—CH3 10 mg/kg ip, t test p ≦ 0.05): 4.67 | Total Distance Travelled (m) (male Wistar rats; SH-053-2′F-S—CH3 10 mg/kg ip, t test p = 0.080): 6.91 m | Total Entries (male Wistar rats; SH-053-2′F-S—CH3 10 mg/kg ip, t test p = 0.239): 8.00 | % Open Time (male Wistar rats; SH-053-2′F-S—CH3 10 mg/kg ip, t test p = 0.536): 25.00% | % Open Entries (male Wistar rats; SH-053-2′F-S—CH3 10 mg/kg ip, t test p = 0.147): 37.17% | Time in open arms (male Wistar rats; SH-053-2′F-S—CH3 10 mg/kg ip, printed t test line doubtful): 60.50 | Time in closed arms (male Wistar rats; SH-053-2′F-S—CH3 10 mg/kg ip, t test p = 0.586): 183.33

Cc1nnc2n1-c1ccc(Cl)cc1C(c1ccccc1Cl)=NC2 [Triazolam, reference compound]
Antianxiety/sedation (Male Sprague-Dawley rats [1]): 300 | Antianxiety/ataxia (Male Sprague-Dawley rats [2]): 100 | PTZ Seizures, effective dose (Male CF1 mice): <1.0 mg/kg | Antianxiety/abuse liability (Male Sprague-Dawley rats [3]): 30
